Results taken from ChEMBL document CHEMBL5500341, “Discovery of pyrido[3,2-d]pyrimidin-6(5H)-one derivatives as checkpoint kinase 1 (CHK1) inhibitors with potent antitumor efficacy” (Eur J Med Chem, 2024).
pIC50: −log10 of the molar value.

Legend:
[1] = Half life in ICR mouse at 2 mg/kg, iv measured up to 24 hrs by LC-MS/MS analysis; format: ADME, organism-based; settings: in vivo
[2] = tested on: OVCAR-3; assay: cells; settings: Homo sapiens, OVCAR-3, 72 h
Description: Antiproliferative activity against human OVCAR-3 cells assessed as inhibition of cell proliferation incubated for 72 hrs by CCK-8 assay

[3] = tested on: MDA-MB-468; assay: cells; settings: Homo sapiens, MDA-MB-468, 72 h
Description: Antiproliferative activity against human MDA-MB-468 cells assessed as inhibition of cell proliferation incubated for 72 hrs by CCK-8 assay

[4] = target: Serine/threonine-protein kinase Chk2 (Homo sapiens) (UniProt O96017); assay: Inhibition of CHK2 (unknown origin) at 500 nM relative to control
Chain of Serine/threonine-protein kinase Chk2 (Homo sapiens) (O96017 whole entry): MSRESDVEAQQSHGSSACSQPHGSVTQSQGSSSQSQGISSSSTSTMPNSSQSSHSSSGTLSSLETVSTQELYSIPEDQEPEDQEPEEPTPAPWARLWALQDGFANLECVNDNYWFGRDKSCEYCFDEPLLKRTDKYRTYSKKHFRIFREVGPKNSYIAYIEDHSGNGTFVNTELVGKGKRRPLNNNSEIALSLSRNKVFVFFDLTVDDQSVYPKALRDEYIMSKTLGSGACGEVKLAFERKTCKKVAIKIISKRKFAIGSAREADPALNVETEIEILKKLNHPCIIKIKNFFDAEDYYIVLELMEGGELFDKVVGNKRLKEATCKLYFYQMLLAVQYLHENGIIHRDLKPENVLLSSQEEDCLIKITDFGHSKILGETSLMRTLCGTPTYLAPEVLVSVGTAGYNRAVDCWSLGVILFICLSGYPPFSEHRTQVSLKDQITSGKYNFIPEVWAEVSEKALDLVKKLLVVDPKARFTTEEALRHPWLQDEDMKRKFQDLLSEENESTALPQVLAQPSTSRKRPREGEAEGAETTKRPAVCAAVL

[5] = tested on: HCT-116; assay: cells; settings: Homo sapiens, HCT-116, 72 h
Description: Antiproliferative activity against human HCT-116 cells assessed as inhibition of cell proliferation incubated for 72 hrs by CCK-8 assay

[6] = tested on: HT-29; assay: cells; settings: Homo sapiens, HT-29, 72 h
Description: Synergistic antiproliferative activity against human HT-29 cells assessed as inhibition of cell proliferation incubated for 72 hrs in presence of gemcitabine by CCK-8 assay

[7] = Toxicity in female BALB/c mouse xenografted with human HT-29 cells assessed as change in body weight at 30 mg/kg, iv administered once daily for 21 days and measured after 3 days; format: organism-based; settings: in vivo, 576 h, time 24 day
[8] = tested on: HT-29; assay: Antitumor activity against human HT-29 cells xenografted in female BALB/c mouse assessed as tumor growth inhibition at 30 mg/kg, iv administered once daily for 21 days and measured after 3 days in presence of gemcitabine by vernier calipers analysis; settings: HT-29, 576 h, read-out: TGI
[9] = Clearance in ICR mouse at 2 mg/kg, iv measured up to 24 hrs by LC-MS/MS analysis; format: ADME, organism-based; settings: in vivo
[10] = Metabolic stability in human liver microsome assessed as parent compound remaining preincubated with compound for 10 mins followed by NADPH addition and measured immediately by LC-MS/MS analysis; format: ADME; settings: liver microsomes, read-out: Stability
[11] = Tmax in ICR mouse at 10 mg/kg, po measured up to 24 hrs by LC-MS/MS analysis; format: ADME, organism-based; settings: in vivo
[12] = Tmax in ICR mouse at 2 mg/kg, iv measured up to 24 hrs by LC-MS/MS analysis; format: ADME, organism-based; settings: in vivo
[13] = Metabolic stability in human liver microsome assessed as parent compound remaining preincubated with compound for 10 mins followed by NADPH addition and measured at 30 min by LC-MS/MS analysis; format: ADME; settings: liver microsomes, time 40 min, read-out: Stability
[14] = Oral bioavailability in ICR mouse at 10 mg/kg measured up to 24 hrs by LC-MS/MS analysis; format: ADME, organism-based; settings: in vivo
[15] = tested on: MV4-11; assay: Antiproliferative activity against human MV4-11 cells assessed as inhibition of cell proliferation incubated for 72 hrs by CCK-8 assay; format: functional, cell-based; settings: MV4-11, 72 h
[16] = Initial plasma concentration in ICR mouse at 2 mg/kg, iv measured up to 24 hrs by LC-MS/MS analysis; format: ADME, organism-based
[17] = Metabolic stability in human liver microsome assessed as parent compound remaining preincubated with compound for 10 mins followed by NADPH addition and measured at 15 min by LC-MS/MS analysis; format: ADME; settings: liver microsomes, time 25 min, read-out: Stability
[18] = Metabolic stability in human microsome assessed as intrinsic clearance preincubated with compound for 10 mins followed by NADPH addition and measured up to 60 min by LC-MS/MS analysis; format: ADME; settings: microsomes, time < 70 min, read-out: CLH
[19] = Cmax in ICR mouse at 10 mg/kg, po measured up to 24 hrs by LC-MS/MS analysis; format: ADME, organism-based; settings: in vivo
[20] = tested on: HT-29; assay: cells; settings: Homo sapiens, HT-29, 72 h; remark: listed apart in the source
[21] = tested on: A549; assay: cells; settings: Homo sapiens, A549, 72 h
Description: Antiproliferative activity against human A549 cells assessed as inhibition of cell proliferation incubated for 72 hrs by CCK-8 assay

[22] = AUC (0 to t) in ICR mouse at 2 mg/kg, iv measured up to 24 hrs by LC-MS/MS analysis; format: ADME, organism-based; settings: in vivo
[23] = Metabolic stability in human liver microsome assessed as parent compound remaining preincubated with compound for 10 mins followed by NADPH addition and measured at 60 min by LC-MS/MS analysis; format: ADME; settings: liver microsomes, time 70 min, read-out: Stability
[24] = AUC (0 to t) in ICR mouse at 10 mg/kg, po measured up to 24 hrs by LC-MS/MS analysis; format: ADME, organism-based; settings: in vivo
[25] = tested on: A2780; assay: cells; settings: Homo sapiens, A2780, 72 h
Description: Antiproliferative activity against human A2780 cells assessed as inhibition of cell proliferation incubated for 72 hrs by CCK-8 assay

[26] = MRT (0 to infinity) in ICR mouse at 10 mg/kg, po measured up to 24 hrs by LC-MS/MS analysis; format: ADME, organism-based; settings: in vivo
[27] = MRT (0 to infinity) in ICR mouse at 2 mg/kg, iv measured up to 24 hrs by LC-MS/MS analysis; format: ADME, organism-based; settings: in vivo
[28] = tested on: HT-29; assay: Antitumor activity against human HT-29 cells xenografted in female BALB/c mouse assessed as tumor growth inhibition at 30 mg/kg, iv administered once daily for 21 days and measured after 3 days by vernier calipers analysis; settings: HT-29, 576 h, read-out: TGI
[29] = Metabolic stability in human liver microsome assessed as half life preincubated with compound for 10 mins followed by NADPH addition and measured up to 60 min by LC-MS/MS analysis; format: ADME; settings: liver microsomes, time < 70 min
[30] = Half life in ICR mouse at 10 mg/kg, po measured up to 24 hrs by LC-MS/MS analysis; format: ADME, organism-based; settings: in vivo
[31] = tested on: HL-60; assay: cells; settings: Homo sapiens, HL-60, 72 h
Description: Antiproliferative activity against human HL-60 cells assessed as inhibition of cell proliferation incubated for 72 hrs by CCK-8 assay

[32] = Cmax in ICR mouse at 2 mg/kg, iv measured up to 24 hrs by LC-MS/MS analysis; format: ADME, organism-based; settings: in vivo
[33] = Metabolic stability in human liver microsome assessed as intrinsic clearance preincubated with compound for 10 mins followed by NADPH addition and measured up to 60 min by LC-MS/MS analysis; format: ADME; settings: liver microsomes, time < 70 min, read-out: CLH
[34] = AUC (0 to infinity) in ICR mouse at 10 mg/kg, po measured up to 24 hrs by LC-MS/MS analysis; format: ADME, organism-based; settings: in vivo
[35] = Volume of distribution at steady state in ICR mouse at 2 mg/kg, iv measured up to 24 hrs by LC-MS/MS analysis; format: ADME, organism-based; settings: in vivo, read-out: Vdss
[36] = MRT (0 to t) in ICR mouse at 10 mg/kg, po measured up to 24 hrs by LC-MS/MS analysis; format: ADME, organism-based; settings: in vivo
[37] = Metabolic stability in human liver microsome assessed as parent compound remaining preincubated with compound for 10 mins followed by NADPH addition and measured at 5 min by LC-MS/MS analysis; format: ADME; settings: liver microsomes, time 15 min, read-out: Stability
[38] = tested on: HT-29; assay: cells; settings: Homo sapiens, HT-29, 72 h; remark: listed apart in the source
Description: Antiproliferative activity against human HT-29 cells assessed as inhibition of cell proliferation incubated for 72 hrs by CCK-8 assay

[39] = AUC (0 to infinity) in ICR mouse at 2 mg/kg, iv measured up to 24 hrs by LC-MS/MS analysis; format: ADME, organism-based; settings: in vivo
[40] = MRT (0 to t) in ICR mouse at 2 mg/kg, iv measured up to 24 hrs by LC-MS/MS analysis; format: ADME, organism-based; settings: in vivo

N#Cc1ncc(Nc2ncc3c(ccc(=O)n3CC(F)F)n2)cc1N[C@@H]1CCNC1
half-life [1]: 5.7 h
pIC50 [2]: 6.22
pIC50 [3]: < 5.00
inhibition [4]: 22%
pIC50 [5]: < 5.00
pIC50 [6]: 7.20
Activity [7]: Non-Toxic
inhibition in vivo at 30 mg/kg [8]: 42.8%
clearance [9]: 98.4 mL/min/kg
remaining at 0 min [10]: 100%
Tmax [11]: 4.8 min
Tmax [12]: 4.8 min
remaining at 0.5 h [13]: 8.93%
bioavailability [14]: 2.77%
pIC50 [15]: 6.69
C0 at 24 h [16]: 860 ng/mL
remaining at 0.25 h [17]: 24.4%
microsomal CLint [18]: 129 µL/min/mg
Cmax [19]: 81.1 ng/mL
pIC50 [20]: 7.20
pIC50 [21]: < 5.00
AUC(0-t) at 24 h [22]: 327 ng·h/mL
remaining at 1 h [23]: 1.96%
AUC(0-t) at 24 h [24]: 40.7 ng·h/mL
pIC50 [25]: < 5.00
MRT inf [26]: 1.65 h
MRT inf [27]: 3.91 h
inhibition in vivo at 30 mg/kg [28]: 20.6%
half-life [29]: 0.18 h
half-life [30]: 1.51 h
pIC50 [31]: < 5.00
Cmax [32]: 526 ng/mL
CLint scaled [33]: 116 mL/min/kg
AUC(0-inf) [34]: 47.3 ng·h/mL
Vd [35]: 23.3 L/kg
MRT last at 24 h [36]: 1 h
remaining at 5 min [37]: 60.1%
pIC50 [38]: 5.93
AUC(0-inf) [39]: 341 ng·h/mL
MRT last at 24 h [40]: 2.67 h
